Assay: Metal chelating activity (Fe2+-ferrozine, 562 nm)
Conditions: absorbance at 562 nm
Protocol: Metal chelating capacity of hetaryl sulfonamides 1–12 was determined according to Dinis et al.[60]. […] Simultaneously, to a mixture of FeCl2 (0.1 mL, 0.6 mM), three concentrations (10–30 µg/mL) of hetaryl sulfonamides 1–12 in ethanol (0.4 mL) were added. The activities were initiated by the addition of ferrozine molecules (0.1 mL, 5 mM). Additionally, the reaction was mixed and maintained in a dark room for 10 min.

Compound | Fe^2+ chelating (IC50)
COc1ccc(O)c(C(C)(C)C)c1 [BHA] | 46.20 µg/mL
Cc1cc(C(C)(C)C)c(O)c(C(C)(C)C)c1 [BHT] | 76.96 µg/mL
O=C(O)CN(CCN(CC(=O)O)CC(=O)O)CC(=O)O [EDTA] | 9.36 µg/mL
Cc1c(C)c2c(c(C)c1O)CCC(C)(C(=O)O)O2 (centres unmarked) [Trolox] | 31.13 µg/mL
Cc1c(C)c2c(c(C)c1O)CC[C@@](C)(CCC[C@H](C)CCC[C@H](C)CCCC(C)C)O2 [α-Tocopherol] | 40.76 µg/mL

From PMC6009868, “Synthesis and bioactivity of several new hetaryl sulfonamides” (Journal of Enzyme Inhibition and Medicinal Chemistry, 2017)
